Reference: ChEMBL document CHEMBL1201862, “PubChem BioAssay data set” (2004)
Activity calls are given as the source filed them.

Experiments:
[1] = target: DNA dC->dU-editing enzyme APOBEC-3A (Homo sapiens, UniProt P31941); test: APOBEC3A DNA deaminase inhibitors, dose response, biochemical (AID 504722); format: functional
[2] = target: DNA dC->dU-editing enzyme APOBEC-3G (Homo sapiens, UniProt Q9HC16); test: Dose Response confirmation of small molecule APOBEC3G DNA Deaminase Inhibitors via a fluorescence-based single-stranded DNA deaminase assay. [Related pubchem assays (depositor defined):AID493012, AID493028]; format: functional
DNA dC->dU-editing enzyme APOBEC-3G, sequence (Q9HC16 whole entry): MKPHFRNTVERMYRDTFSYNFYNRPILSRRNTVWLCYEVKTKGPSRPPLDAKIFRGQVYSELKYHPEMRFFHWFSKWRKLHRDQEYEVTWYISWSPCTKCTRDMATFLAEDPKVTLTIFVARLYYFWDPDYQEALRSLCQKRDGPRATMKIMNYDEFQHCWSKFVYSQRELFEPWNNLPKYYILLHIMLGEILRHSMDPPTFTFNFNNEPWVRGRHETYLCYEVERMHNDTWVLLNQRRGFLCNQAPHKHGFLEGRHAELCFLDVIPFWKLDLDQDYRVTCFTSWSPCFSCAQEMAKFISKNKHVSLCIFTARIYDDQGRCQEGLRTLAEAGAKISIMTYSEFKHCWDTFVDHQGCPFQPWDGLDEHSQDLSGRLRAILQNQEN

[3] = HEp-2 cell cytotoxicity, dose response, cytotoxicity control for RSV inhibitor project, HTS (AID 2410); format: functional; details: human respiratory syncytial virus
[4] = test system: Vero; test: cells; format: functional, cell-based; details: Chlorocebus sabaeus
[5] = cells
[6] = cytotoxicity in HPDE-C7 cells, cell-based, fluorescence, HTS (AID 430); format: functional; details: Homo sapiens
[7] = cytotoxicity in KRAS-transformed pancreatic duct cells, primary screen, cell-based, fluorescence, HTS (AID 431); format: functional; details: Homo sapiens;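 also: cell line used: HPDE-C7K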
[8] = Luminescence Cell-Based Dose Retest to Confirm Inhibitors of Cancer Stem Cells. [Related pubchem assays (depositor defined):AID2717, AID2721]; format: functional; details: Homo sapiens
[9] = target: T1, Microphthalmia-associated transcription factor (Homo sapiens, UniProt O75030); test: TRPM1 promoter luciferase signal decrease, dose response, MITF inhibitor project, cell-based, SK-MEL-5, cherry-picked, set 3 (AID 493073); format: functional
T1 sequence (O75030 whole entry): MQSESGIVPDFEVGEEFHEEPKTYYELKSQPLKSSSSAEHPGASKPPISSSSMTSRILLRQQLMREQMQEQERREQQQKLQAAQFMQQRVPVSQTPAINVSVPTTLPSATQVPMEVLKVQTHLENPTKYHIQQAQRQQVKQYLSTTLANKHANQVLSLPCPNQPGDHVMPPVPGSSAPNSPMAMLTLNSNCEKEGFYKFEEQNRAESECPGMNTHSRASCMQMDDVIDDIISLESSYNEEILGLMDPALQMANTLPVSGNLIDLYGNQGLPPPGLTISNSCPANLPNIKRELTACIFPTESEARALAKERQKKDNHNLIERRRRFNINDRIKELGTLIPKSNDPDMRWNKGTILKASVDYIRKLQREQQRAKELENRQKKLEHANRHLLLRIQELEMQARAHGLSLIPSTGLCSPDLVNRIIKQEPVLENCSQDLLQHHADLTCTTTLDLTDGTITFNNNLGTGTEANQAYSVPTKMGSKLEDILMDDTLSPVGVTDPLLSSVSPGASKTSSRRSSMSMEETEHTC

[10] = microbe, parasite or virus in culture; format: functional; details: Mycobacterium tuberculosis
[11] = target: Beta-galactosidase (Escherichia coli, UniProt Q8VNN2); test: beta-galactosidase enzyme inhibitors and activators, dose response, artefact control for CCR6 antagonist project, biochemical, E. coli enzyme, set 3 (AID 504712); format: functional
Beta-galactosidase, sequence (Q8VNN2 whole entry): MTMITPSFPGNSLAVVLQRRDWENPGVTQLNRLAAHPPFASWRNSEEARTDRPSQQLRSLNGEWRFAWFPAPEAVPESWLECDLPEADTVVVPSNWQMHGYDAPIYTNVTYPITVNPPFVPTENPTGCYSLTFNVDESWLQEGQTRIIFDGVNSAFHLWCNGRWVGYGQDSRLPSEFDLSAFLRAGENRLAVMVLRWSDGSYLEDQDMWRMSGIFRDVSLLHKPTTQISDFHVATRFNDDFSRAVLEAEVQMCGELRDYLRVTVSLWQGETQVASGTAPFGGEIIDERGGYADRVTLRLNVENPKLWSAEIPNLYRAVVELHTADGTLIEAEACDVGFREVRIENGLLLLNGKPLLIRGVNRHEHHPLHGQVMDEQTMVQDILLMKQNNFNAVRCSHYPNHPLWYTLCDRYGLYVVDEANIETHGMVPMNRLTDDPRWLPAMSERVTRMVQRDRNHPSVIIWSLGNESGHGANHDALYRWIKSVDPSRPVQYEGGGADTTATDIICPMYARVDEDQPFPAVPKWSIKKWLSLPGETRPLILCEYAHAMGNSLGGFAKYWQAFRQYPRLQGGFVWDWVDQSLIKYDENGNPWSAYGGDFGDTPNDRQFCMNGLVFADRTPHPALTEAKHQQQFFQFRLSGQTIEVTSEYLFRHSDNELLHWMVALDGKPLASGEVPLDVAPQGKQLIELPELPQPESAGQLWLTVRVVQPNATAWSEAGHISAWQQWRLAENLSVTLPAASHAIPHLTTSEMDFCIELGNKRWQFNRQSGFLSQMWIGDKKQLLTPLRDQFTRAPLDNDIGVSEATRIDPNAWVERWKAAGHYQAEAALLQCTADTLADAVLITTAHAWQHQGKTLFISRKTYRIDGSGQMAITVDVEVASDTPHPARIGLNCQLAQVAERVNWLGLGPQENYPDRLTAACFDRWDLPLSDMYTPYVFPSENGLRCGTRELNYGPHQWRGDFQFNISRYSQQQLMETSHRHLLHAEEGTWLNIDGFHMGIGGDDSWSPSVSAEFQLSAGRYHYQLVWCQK

[12] = target: T2, Heat shock factor protein 1 (Mus musculus, UniProt P38532); test: HSF1 potentiators in luciferase reporter cells, confirmation, cell-based, NIH3T3, luminescence, dose retest (AID 435004); format: functional;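 also: stress induced by proteasome inhibitor MG132 added 30 min after compound; luciferase reporter driven by HSF1 response element in NIH3T3 cells; actives raise luminescence as potentiators of the MG132 stress response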
T2 sequence (P38532 whole entry): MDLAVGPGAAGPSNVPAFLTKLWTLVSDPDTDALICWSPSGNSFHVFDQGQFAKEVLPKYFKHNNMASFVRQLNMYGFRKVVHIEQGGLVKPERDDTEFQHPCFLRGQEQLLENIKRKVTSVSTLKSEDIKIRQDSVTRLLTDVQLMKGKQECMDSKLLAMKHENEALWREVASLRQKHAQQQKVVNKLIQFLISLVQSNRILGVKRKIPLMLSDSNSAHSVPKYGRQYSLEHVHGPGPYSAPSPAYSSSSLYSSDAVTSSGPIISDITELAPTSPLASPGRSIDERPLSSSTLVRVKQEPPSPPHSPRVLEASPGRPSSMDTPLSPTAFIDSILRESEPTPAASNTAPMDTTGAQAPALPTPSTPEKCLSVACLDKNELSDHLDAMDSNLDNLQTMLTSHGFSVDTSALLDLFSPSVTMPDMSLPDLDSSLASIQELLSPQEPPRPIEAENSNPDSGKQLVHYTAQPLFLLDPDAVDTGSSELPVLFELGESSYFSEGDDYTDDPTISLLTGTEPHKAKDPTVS

[13] = target: Heat shock protein HSP 90-alpha (Homo sapiens, UniProt P07900); format: functional, organism-based
[14] = test system: INS1; test: beta cell apoptosis inhibitors, cytokine rescue, dose response, luminescence, retest (AID 449756); format: functional, cell-based; details: Rattus norvegicus;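 also: cell death triggered by IL-1 beta plus TNF-alpha plus IFN-gamma mixture; protective hits raise ATP signal compared with cytokine alone wells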
[15] = Shn3 3'UTR reporter inhibitors, dose response, cell-based, Clone20 osteoblasts, firefly luciferase, cherry-picked (AID 624132); format: functional;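 also: firefly luciferase luminescence from reporter carrying the Shn3 3'UTR in osteoblasts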
[16] = HepG2 cell cytotoxicity, dose response, cytotoxicity control for Shn3 inhibitor project, CellTiter-Glo, cherry-picked (AID 624134); format: functional, cell-based
[17] = control 3'UTR Renilla luciferase suppression, dose response, counter-screen for Shn3 inhibitor project, cell-based, Clone20-Shn3RL, cherry-picked (AID 624133); format: functional
[18] = HeLa cell cytotoxicity, dose response, cytotoxicity control for MgcRacGAP inhibitor project (AID 624300); format: functional
[19] = target: T3, Rac GTPase-activating protein 1 (Homo sapiens, UniProt Q9H0H5); test: MgcRacGAP GTPase-activating activity inhibitors, confirmation, biochemical, ADP Hunter fluorescence, primary and confirmatory (AID 624330); format: functional
T3 sequence (Q9H0H5 whole entry): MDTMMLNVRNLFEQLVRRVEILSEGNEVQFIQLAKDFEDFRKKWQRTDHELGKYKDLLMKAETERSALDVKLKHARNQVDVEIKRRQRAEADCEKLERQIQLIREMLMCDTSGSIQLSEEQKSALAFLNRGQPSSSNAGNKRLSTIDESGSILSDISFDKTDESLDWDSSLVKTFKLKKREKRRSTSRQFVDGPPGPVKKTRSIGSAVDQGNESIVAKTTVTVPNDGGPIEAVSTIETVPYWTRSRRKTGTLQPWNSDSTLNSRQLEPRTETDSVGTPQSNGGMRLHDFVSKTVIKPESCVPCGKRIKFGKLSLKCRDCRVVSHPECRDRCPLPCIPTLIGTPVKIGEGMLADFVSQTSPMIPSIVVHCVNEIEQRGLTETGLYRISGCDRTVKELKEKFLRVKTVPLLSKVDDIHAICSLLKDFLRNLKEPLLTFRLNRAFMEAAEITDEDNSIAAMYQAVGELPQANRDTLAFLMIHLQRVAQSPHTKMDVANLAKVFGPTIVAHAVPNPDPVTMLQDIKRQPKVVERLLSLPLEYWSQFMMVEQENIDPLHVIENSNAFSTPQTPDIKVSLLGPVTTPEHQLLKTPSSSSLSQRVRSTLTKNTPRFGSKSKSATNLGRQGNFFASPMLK

[20] = target: Large T antigen (Simian virus 40, UniProt P03070); format: functional, Betapolyomavirus macacae;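 also: Confirmatory-stage PubChem screen for compounds that inhibit SV40 T antigen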
Large T antigen, sequence (P03070 whole entry): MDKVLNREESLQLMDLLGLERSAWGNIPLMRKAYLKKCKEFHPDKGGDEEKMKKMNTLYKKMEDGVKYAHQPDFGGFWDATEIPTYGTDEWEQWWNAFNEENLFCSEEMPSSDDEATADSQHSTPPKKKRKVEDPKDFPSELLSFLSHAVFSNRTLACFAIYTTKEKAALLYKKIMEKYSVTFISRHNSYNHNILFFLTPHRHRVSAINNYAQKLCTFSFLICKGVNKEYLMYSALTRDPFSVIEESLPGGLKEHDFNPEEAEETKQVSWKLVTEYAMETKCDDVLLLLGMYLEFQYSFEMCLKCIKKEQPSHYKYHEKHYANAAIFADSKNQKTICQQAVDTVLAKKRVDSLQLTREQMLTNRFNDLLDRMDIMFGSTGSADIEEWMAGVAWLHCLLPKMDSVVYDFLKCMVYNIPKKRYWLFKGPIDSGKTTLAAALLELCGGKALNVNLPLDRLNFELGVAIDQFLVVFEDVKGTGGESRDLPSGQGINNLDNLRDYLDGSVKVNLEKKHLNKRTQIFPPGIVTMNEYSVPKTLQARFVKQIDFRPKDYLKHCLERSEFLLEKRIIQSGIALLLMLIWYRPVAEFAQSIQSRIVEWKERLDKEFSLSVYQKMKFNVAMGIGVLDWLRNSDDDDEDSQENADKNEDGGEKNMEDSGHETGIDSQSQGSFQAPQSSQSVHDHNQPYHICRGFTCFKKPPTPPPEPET

[21] = target: Glucose-6-phosphate 1-dehydrogenase (Homo sapiens, UniProt P11413); test: human G6PD enzyme inhibitors, dose response, selectivity assay for P. falciparum G6PD inhibitor project, biochemical, fluorescence (AID 504792); format: functional
Glucose-6-phosphate 1-dehydrogenase, sequence (P11413 whole entry): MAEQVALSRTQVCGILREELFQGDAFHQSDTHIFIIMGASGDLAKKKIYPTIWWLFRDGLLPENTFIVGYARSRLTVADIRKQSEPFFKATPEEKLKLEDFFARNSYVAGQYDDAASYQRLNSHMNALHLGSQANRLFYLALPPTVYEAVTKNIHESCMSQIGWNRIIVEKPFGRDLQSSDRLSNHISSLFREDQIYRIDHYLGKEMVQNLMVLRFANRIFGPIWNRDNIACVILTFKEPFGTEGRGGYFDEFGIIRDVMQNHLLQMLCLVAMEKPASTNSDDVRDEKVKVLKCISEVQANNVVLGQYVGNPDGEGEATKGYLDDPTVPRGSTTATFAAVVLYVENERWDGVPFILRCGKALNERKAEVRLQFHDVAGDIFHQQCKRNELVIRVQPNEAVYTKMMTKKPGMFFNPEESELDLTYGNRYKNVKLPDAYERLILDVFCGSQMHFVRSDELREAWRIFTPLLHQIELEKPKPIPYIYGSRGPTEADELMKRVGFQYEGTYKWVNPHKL

[22] = target: Eukaryotic translation initiation factor 4E (Mus musculus, UniProt P63073); test: eIF4E–eIF4G protein interaction inhibitors, dose response, biochemical, TR-FRET (AID 855); format: functional;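 also: potency for disrupting eIF4E binding to eIF4GI seen as loss of FRET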
Eukaryotic translation initiation factor 4E, sequence (P63073 whole entry): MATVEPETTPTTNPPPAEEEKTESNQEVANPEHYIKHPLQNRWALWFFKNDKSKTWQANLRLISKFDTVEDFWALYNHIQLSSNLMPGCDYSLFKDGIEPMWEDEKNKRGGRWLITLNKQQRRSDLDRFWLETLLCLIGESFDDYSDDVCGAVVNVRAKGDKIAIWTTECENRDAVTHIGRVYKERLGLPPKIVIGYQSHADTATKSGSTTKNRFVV

[23] = target: T4, Estrogen receptor (Homo sapiens, UniProt P03372);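 also: potency for inhibiting coactivator peptide recruitment to the receptor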
T4 sequence (P03372 whole entry): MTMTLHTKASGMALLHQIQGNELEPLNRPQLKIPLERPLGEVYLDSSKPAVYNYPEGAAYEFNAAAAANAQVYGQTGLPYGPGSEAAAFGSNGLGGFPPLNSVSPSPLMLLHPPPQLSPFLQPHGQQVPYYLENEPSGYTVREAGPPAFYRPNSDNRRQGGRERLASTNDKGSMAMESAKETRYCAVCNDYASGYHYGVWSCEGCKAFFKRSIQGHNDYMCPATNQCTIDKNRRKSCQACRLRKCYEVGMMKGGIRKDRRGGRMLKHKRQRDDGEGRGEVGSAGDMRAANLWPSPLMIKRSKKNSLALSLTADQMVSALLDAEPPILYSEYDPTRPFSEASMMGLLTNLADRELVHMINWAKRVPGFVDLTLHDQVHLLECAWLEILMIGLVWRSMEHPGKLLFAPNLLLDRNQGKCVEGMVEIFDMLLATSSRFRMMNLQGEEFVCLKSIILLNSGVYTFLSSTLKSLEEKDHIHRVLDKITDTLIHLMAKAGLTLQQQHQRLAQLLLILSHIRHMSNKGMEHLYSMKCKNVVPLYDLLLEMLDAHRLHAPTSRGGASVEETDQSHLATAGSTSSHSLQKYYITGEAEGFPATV

[24] = Luminescence Cell-Based Dose Confirmation HTS to Identify Activators of 5'UTR Stem-Loop Driven Alpha-Synuclein mRNA Translation in H4 Neuroglioblastoma Cells. [Related pubchem assays: 1829 (Project Summary), 1814 (Primary HTS)]; format: functional
[25] = Luminescence Cell-Based Dose Response HTS to Identify Activators of Luciferase Translation or Activity in H4 […] Cells. [Related pubchem assays: 1829 (Project Summary), 1814 (Primary HTS)]; format: functional
[26] = test system: H4; test: Luminescence Cell-Based Dose Response HTS to Identify Activators of 5'UTR Stem-Loop Driven Prion Protein mRNA Translation in H4 Neuroglioblastoma Cells. [Related pubchem assays: 1829 (Project Summary), 1814 (Primary HTS)]; format: functional; details: Homo sapiens
[27] = target: G-protein coupled receptor 55 (Homo sapiens, UniProt Q9Y2T6); test: GPR55 agonists via beta-arrestin recruitment, primary screen, imaging, U2OS cells, beta-arrestin-GFP redistribution (AID 1961); format: functional
G-protein coupled receptor 55, sequence (Q9Y2T6 whole entry): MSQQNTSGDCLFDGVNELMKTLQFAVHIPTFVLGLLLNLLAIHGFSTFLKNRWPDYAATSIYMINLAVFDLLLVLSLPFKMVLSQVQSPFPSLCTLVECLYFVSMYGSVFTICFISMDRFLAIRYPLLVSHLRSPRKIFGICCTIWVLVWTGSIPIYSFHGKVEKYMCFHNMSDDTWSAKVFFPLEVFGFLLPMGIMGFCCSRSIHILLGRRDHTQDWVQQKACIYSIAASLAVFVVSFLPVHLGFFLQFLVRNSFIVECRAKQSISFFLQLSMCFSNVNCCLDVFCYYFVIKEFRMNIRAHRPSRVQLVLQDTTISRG

DNA dC->dU-editing enzyme APOBEC-3A, sequence (P31941 whole entry): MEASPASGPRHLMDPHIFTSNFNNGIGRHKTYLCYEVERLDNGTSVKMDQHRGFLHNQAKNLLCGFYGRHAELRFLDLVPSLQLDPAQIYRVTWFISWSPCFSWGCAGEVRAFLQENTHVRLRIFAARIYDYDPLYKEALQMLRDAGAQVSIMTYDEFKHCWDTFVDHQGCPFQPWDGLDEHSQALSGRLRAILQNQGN

For CCCc1cc(-c2n[nH]c(=S)n2CC)cs1, the IC50 [1] was > 100 µM (inactive) and the IC50 [2] was 6.08 µM (active).

With CN1c2ccccc2C(C)(C)C12CC(c1ccc(S(=O)(=O)N3CCCCC3)cc1)=NO2 (configuration not stated) the CC50 [3] was 6.73 µM (active), the IC50 [4] was 4.14 µM (active) and the IC50 [5] was 12 µM (active).

In the case of c1csc(-c2nc3c4ccccc4c4ccccc4c3[nH]2)c1, the IC50 [5] is reported as 5.21 µM (active).

For CCOC(=O)c1c(C)oc2c(F)c(F)c(F)c(F)c2c1=O, the EC50 [6] was 1.55 µM (active), the EC50 [7] was 1.49 µM (active) and the AC50 [8] was 1.26 µM (active). The AC50 [9] was 2.32 µM (active).

With CN(c1ccccc1)c1ccc(/C=C/[N+](=O)[O-])cc1 the CC50 [10] was 25.9 µM (active), the IC50 [11] was > 66.6 µM (inactive) and the EC50 [12] was 5.04 µM (inconclusive). For the same compound, the AC50 [13] was 8.67 µM (active), the AC50 [14] was 6.67 µM (active) and the AC50 [15] was 5.79 µM (active). For the same compound, the AC50 [16] was 18 µM (active), the AC50 [17] was 17.5 µM (active) and the CC50 [18] was 38.5 µM (active). For the same compound, the IC50 [19] was 23.3 µM (active).

In the case of CCN(CC)CCNC(=O)CCCCn1c(=S)[nH]c2c([nH]c3ccc(OC)cc32)c1=O, the IC50 [20] is reported as 8.17 µM (active), the IC50 [1] is reported as > 100 µM (inactive) and the IC50 [21] is reported as > 80 µM (inactive). For the same compound, the IC50 [22] was > 64 µM (inactive) and the IC50 [2] was 2.5 µM (active).

With O=[N+]([O-])c1cc2c(cc1/C=N/n1c(S)nnc1-c1ccccc1)OCO2 the IC50 [1] was > 100 µM (inactive) and the IC50 [2] was 1.89 µM (active).

In the case of CN(C)c1nc(N/N=C\c2ccc(Cl)c([N+](=O)[O-])c2)nc(Nc2ccc(F)cc2)n1, the IC50 [23] is reported as > 50 µM (not active).

In the case of Clc1ccccc1-c1nc2ccccc2[nH]1, the EC50 [24] is reported as 0.289 µM (active), the EC50 [25] is reported as 0.36 µM (active) and the EC50 [26] is reported as 13.7 µM (active). The EC50 [27] was 2.24 µM (active).
